Measured values from patent US11384071B2, “Inhibitors of mechanotransduction to treat pain and modulate touch perception” (Max-Delbrück-Centrum für Molekulare Medizin in der …, priority 2016, dated 2022).

What was measured:
STOML3 = target: T1, STOML3 (Mus musculus, UniProt Q6PE84); test: BiFC assay of STOML3 self-association in HEK-293 cells; format: cell-based; settings: for STOML3 self-association based on the slope of YFP signal development: primary screen of about 35000 small molecules, each at 10 M (so in the source)
T1 construct: expressed in transfected cells; host or cells: HEK-293
T1 sequence (Q6PE84 1-287): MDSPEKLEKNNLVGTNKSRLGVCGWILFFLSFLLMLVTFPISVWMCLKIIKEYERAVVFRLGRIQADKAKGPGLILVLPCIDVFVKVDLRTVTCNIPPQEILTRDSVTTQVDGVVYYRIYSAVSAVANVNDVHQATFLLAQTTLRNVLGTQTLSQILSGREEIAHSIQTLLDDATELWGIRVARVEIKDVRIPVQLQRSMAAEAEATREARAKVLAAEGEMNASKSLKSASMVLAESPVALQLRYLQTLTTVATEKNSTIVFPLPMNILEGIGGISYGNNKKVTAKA
Description: HEK-293 cells were cultured in T-150 flasks to approximately 70% confluence; cells were co-transfected with plasmids encoding STOML3-VC and STOML3-VN using Fugene-HD, as per manufacturer's instructions. The transfection reaction was allowed to proceed for 8 h before cells were recovered from the dishes, resuspended in DMEM media containing 25 mM HEPES and lacking phenol red. Cells were plated in PLL-coated 384 well plates using an automated dispenser (EL406 Microplate Washer Dispenser). Plates already contained compound from the ChemBioNet compound library1. The final assay volume was 40 μl cells with 10 μM of compound. […] Development of the YFP fluorescence signal was monitored overnight (15 h), with readings taken every 3 h (ex: 515±8 nm, em: 535±8 nm). In between readings cells were maintained at 37° C., 5% CO2, and 95% humidity. The overnight monitoring of signal development was performed on a Freedom Evo workstation equipped with a robotic arm for plate transport and a Safirell plate reader for fluorescence measurement (Tecan Group Ltd, Männedorf, Switzerland), and an integrated STX44-ICSA automated plate incubator (Liconic AG, Mauren, Liechtenstein) for plate storage in between measurements. Experiments were repeated with 20 plates each day until the entire compound library had been screened and data was normalized to in-plate controls.
Compounds of interest were selected from the slope of YFP-signal vs time. Each well was compared to the average slope of in-plate positive controls (normalized percent activity), and compared to the mean and standard deviation of all samples on a plate (without the controls), giving a Z score as a measure of statistical significance. Initially, compounds were re-screened in triplicate to confirm whether or not the noted differences were repeatable; compounds with confirmed activity were selected for further analysis.
(§1) In mammals STOML3 belongs to a family of five structurally conserved membrane proteins, including stomatin, STOML1, STOML2, and podocin^10,12-16, all of which self-associate via their stomatin-domain (FIG. 8a)^10. Self-association of stomatin-domain proteins can be monitored in HEK293 cells using Bimolecular Fluorescence Complementation (BiFC) whereby N- and C-terminal halves of the YFP molecule are tagged to the prey and bait protein STOML3^2,17 (FIG. 1a). Irreversible association of the YFP fragments produces fluorescence that increases linearly over time (FIG. 1b).

[1] = system: Spared tibial nerve injury (SNI) mice; test: Spared nerve injury (SNI) model, paw withdrawal thresholds; format: in vivo, mouse; settings: administration to the plantar skin
From the text: Mice were allowed to habituate to the testing apparatus (acrylic chambers 10×10 cm in size, suspended above a wired mesh grid) one hour prior to behavioral testing. Only once the subject was at rest and not moving, calibrated von-Frey hair monofilaments (Aesthesio® set of 20 monofilaments, Ugo Basil) were applied to the plantar surface of the hind paw in order to deliver target forces from 0.008 grams to 4 grams increasing in an approximately logarithmic scale. A single stimulus indicated by a slight bending of the filament lasted for two seconds unless the mouse withdrew its paw. In order to measure mechanosensitivity the up-and-down method described by Chaplan^13 was adapted as follows: Testing began with a filament delivering a target force of 0.4 g, but filaments were applied three times. A positive response was noted if the subject withdrew the paw to all three filament applications, so that the successively smaller filament was presented next. […] Paw withdrawal thresholds were calculated as median of 23 to 30 determined turning points of the particular force stimuli applied to the subject.

STOML1 = target: T2, STOML1 (Mus musculus, UniProt Q8CI66); test: BiFC assay of STOML1 self-association; format: cell-based
T2 construct: expressed in transfected cells; host or cells: HEK293 (general statement on the BiFC assay)
Description: (§2) FIG. 8: Effects of STOML3 modulating molecules on other Stomatin-domain proteins. (a) BiFC signal development observed when cells were transfected with Stomatin-VC/-VN, STOML1-VC/-VN, STOML2-VC/-VN, STOML3-VC/-VN or Podocin-VC/-VN expression constructs respectively. […] (b) OB-1 was tested at two different concentrations (2 μm and 20 μm) using the BiFC assay where wild type STOML3 was used as both bait and prey.
as §1

human STOML3 = target: T3, human STOML3 (Homo sapiens, UniProt Q8TAV4); test: BiFC assay of human STOML3 self-association; format: cell-based
T3 construct: expressed in transfected cells; host or cells: HEK293 (general statement on the BiFC assay)
From the text: as §1

head-restrained mice = test: Tactile perception task for head-restrained mice; format: in vivo, mouse
From the text: Male C57B16/J mice were anaesthetized and a lightweight metal headholder was implanted to the skull using glue (Loctite 401, Henkel) and dental cement (Paladur®, Heraeus). Mice were habituated to the head-restraint and the behavioral setup over 1-2 days. Mouse licking and forepaw behavior was monitored with three custom-made capacitance sensors: a licking sensor, a rest sensor and a target sensor that provided an online monitor of paw or tongue contact. The rest sensor was a ball (diameter: 6 mm) mounted on a glass rod of 30 mm length, glued to a piezoelectric bender (PICMA® Multilayer Piezo Bender Actuator, Physik Instrumente). The piezo generated a 30 ms cosine tactile pulse via a piezo amplifier system (Sigmann Elektronik). A urethane foam buffer (Poron®, Rogers Cooperation) was placed between the piezo and the supporting platform to reduce ringing oscillations after the stimulus pulse. The stimulus amplitude was calibrated with a high-speed (300 Hz) camera (Dalsa Genie HM640). […] Mice were water restricted and given approximately 4×0.6 μl water rewards on condition of touching the target sensor within a defined latency from stimulus onset and licking the water dispenser. The target sensor moved to the start position at the start of a new trial and away from the mouse at the end of the trial. Inter-trial interval was randomized between 7 and 13 s. […]

STOML2 = target: T4, STOML2 (Mus musculus, UniProt Q99JB2); test: BiFC assay of STOML2 self-association; format: cell-based
T4 construct: expressed in transfected cells; host or cells: HEK293 (general statement on the BiFC assay)
Description: as §2, §1

Podocin = target: T5, Podocin (Mus musculus, UniProt Q91X05); test: BiFC assay of podocin self-association; format: cell-based
T5 construct: expressed in transfected cells; host or cells: HEK293 (general statement on the BiFC assay)
Description: as §2, §1

[2] = system: 79 receptors and ion channels; test: Commercial in vitro pharmacology panel (cerep); format: binding; settings: 20 μM, panel of 79 receptors and ion channels
Description: We next interrogated whether local application of OB-1 can ameliorate tactile-evoked pain behavior in neuropathic models. […] We decided to test this idea more directly by testing the effects of local OB-1 on the mechanical sensitivity of Stoml3^−/− mice with CCI. […] Off-target effects are an issue for any biologically active small molecule. We therefore tested the effects of 20 μM OB-1 in a commercially available in vitro pharmacology panel (www.cerep.fr) consisting of 79 receptors and ion channels.

T5 sequence (Q91X05 whole entry): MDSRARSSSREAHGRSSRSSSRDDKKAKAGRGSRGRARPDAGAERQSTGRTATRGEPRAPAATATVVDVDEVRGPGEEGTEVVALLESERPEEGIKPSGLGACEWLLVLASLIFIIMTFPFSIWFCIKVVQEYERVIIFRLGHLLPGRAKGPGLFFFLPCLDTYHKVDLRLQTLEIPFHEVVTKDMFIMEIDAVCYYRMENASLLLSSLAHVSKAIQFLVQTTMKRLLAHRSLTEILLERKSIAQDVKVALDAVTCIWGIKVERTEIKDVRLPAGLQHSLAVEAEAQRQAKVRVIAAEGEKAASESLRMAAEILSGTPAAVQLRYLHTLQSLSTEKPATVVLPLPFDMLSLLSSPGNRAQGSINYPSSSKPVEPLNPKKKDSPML
T3 sequence (Q8TAV4 whole entry): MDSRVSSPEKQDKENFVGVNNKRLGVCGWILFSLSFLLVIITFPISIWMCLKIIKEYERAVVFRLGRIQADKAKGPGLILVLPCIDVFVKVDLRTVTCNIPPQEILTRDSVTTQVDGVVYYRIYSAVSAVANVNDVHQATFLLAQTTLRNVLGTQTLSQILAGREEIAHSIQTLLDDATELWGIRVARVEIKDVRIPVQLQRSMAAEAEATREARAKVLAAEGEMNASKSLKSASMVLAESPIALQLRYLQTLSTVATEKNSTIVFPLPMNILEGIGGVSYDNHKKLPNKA
T4 sequence (Q99JB2 29-353): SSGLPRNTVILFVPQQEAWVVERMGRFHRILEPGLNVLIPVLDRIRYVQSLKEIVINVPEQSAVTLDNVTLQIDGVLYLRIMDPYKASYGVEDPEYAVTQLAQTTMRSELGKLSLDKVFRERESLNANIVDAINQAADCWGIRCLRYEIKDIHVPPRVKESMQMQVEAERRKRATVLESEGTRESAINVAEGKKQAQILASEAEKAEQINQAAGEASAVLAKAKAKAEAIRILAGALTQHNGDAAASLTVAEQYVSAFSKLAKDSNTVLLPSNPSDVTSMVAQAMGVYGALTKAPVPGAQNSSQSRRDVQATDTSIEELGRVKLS
T2 sequence (Q8CI66 whole entry): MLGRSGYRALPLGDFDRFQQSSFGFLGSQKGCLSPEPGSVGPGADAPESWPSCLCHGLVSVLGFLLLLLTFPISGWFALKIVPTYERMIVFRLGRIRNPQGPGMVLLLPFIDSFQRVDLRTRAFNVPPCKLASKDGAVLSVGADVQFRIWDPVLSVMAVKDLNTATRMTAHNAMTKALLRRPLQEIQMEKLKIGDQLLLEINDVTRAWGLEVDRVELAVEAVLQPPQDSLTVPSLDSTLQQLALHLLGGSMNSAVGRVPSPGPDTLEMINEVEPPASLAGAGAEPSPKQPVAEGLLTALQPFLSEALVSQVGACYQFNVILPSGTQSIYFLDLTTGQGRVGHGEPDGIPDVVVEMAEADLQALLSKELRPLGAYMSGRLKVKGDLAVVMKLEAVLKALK

| Structure (SMILES) | STOML3 self-association based on the slope of YFP signal development (STOML3) | allodynia [1] | self-association of STOML1 (BiFC) (STOML1) | self-association of the human STOML3 protein (BiFC) (human STOML3) | psychometric curve of tactile stimulus detection (head-restrained mice; 11 nmol per paw into forepaw, stimulus strengths 125-275 μm) | time for detection rates of threshold stimuli to return to pre-treatment levels (head-restrained mice; after drug treatment) [days] | self-association of STOML2 (BiFC) (STOML2) | oligomerization of Podocin (BiFC) (Podocin) | receptors with significant inhibition of specific ligand binding [2] | normalized slope of BiFC signal development (STOML3; 2 μm and 20 μm, wild type STOML3 as bait and prey) | BiFC signal (STOML3; lower OB-1 concentration, 2 M (so in the source)) |
| --- | --- | --- | --- | --- | --- | --- | --- | --- | --- | --- | --- |
| Cc1ccnc(NC(=O)CSc2nnc3c4ccccc4n(Cc4ccccc4)c3n2)c1 [OB-2] | most effective inhibitory compounds | – | – | – | – | – | – | – | – | – | – |
| CCOC(=O)c1c(-c2ccccc2)oc2ccc(Oc3c([N+](=O)[O-])ncn3C)cc12 [OB-1, Ethyl 5-((1-methyl-4-nitro-1H-imidazol-5-yl)oxy)-2-phenylbenzofuran-3-carboxylate] | most effective inhibitory compounds | no reversal | effective inhibitor | inhibited | shifted to the right | 1 to 4 | effective inhibitor | does not affect | 6/79 | significantly reduced | inhibited |
